In patent US20260015351A1, “METHODS AND COMPOUNDS FOR INHIBITING MKK7 ENZYMES” (AXONIS THERAPEUTICS, INC., priority 2022, published 2026):

target: T1, MKK7 (Homo sapiens (Human), UniProt O14733); test: MKK7 ADP-Glo in vitro pharmacology assay; format: biochemical; settings: calculated from remaining activity (%)
Experimental: A study was conducted to determine the pharmacology of Compounds 1-18 in vitro in a plurality of biological matrices. Compounds 1-18 were prepared into proper concentrations of DMSO solution. The compound stock was then serially diluted into 10 concentrations by 3-fold dilution in 384 pp-plate. 5 nL of compound stock was transferred to a 384 plate. The compound stock was then diluted to 0.74 nM using a solution, which contained 0.79 mL of water, 0.2 mL of 5× Buffer, 2 μL of DTT, 6.66 μL of 7.5% BSA, and 5 μL of 10 mM ATP, to form an MKK7 mixture. The MKK7 mixture was then pre-warmed and 2.5 μL was added to each well designated for the “Test compound” and “High control” well, 2.5 μL solution 1 to each well designated for the “Low control” well. The well was incubated for 30 min and centrifuged at room temperature. Following centrifugation, 5 μL of ADD-Glo Reagent was added to each well and incubated for 60 min after centrifugation at room temperature. 10 μL of ADP-Glo Detection was then added to each well and incubated for 30 min after centrifugation in dark at room temperature. IC50 values were calculated based on the remaining activity (%) using read conversion ratio (CR).

T1 sequence (O14733 whole entry): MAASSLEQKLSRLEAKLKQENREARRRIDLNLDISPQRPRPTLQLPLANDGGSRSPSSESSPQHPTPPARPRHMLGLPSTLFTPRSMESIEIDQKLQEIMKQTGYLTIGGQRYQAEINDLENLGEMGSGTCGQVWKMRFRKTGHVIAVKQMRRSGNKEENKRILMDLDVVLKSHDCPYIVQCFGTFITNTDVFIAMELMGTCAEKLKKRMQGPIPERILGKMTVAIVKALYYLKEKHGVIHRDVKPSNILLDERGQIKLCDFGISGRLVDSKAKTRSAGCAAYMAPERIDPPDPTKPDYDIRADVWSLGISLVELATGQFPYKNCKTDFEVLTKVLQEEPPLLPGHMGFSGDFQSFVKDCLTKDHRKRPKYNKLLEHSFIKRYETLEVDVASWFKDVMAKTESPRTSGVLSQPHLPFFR

Row | Structure (SMILES) | IC50
1 | C=CC(=O)N1CCc2c(-c3n[nH]c4ccccc34)cccc21 [Compound 2, 1-[4-(1H-indazol-3-yl)-2,3-dihydroindol-1-yl]prop-2-en-1-one] | 92 nM
2 | CN(C)C/C=C/C(=O)N1CCc2ccc(-c3n[nH]c4ccccc34)cc21 [Compound 6, (2E)-4-(dimethylamino)-1-[6-(1H-indazol-3-yl)-2,3-dihydroindol-1-yl]but-2-en-1-one] | 180 nM
3 | CCOC(=O)/C=C/C(=O)N1CCc2ccc(-c3n[nH]c4ccccc34)cc21 [Compound 7, ethyl (2E)-4-[6-(1H-indazol-3-yl)-2,3-dihydroindol-1-yl]-4-oxobut-2-enoate] | 3900 nM
4 | C=C(F)C(=O)N1CCc2ccc(-c3n[nH]c4ccccc34)cc21 [Compound 8, 2-fluoro-1-[6-(1H-indazol-3-yl)-2,3-dihydroindol-1-yl]prop-2-en-1-one] | 840 nM
5 | C/C=C/C(=O)N1CCc2ccc(-c3n[nH]c4ccccc34)cc21 [Compound 9, (2E)-1-[6-(1H-indazol-3-yl)-2,3-dihydroindol-1-yl]but-2-en-1-one] | 1100 nM
6 | C=CC(=O)N1CCCc2ccc(-c3n[nH]c4cnccc34)cc21 [Compound 10, 1-(7-{1H-pyrazolo[3,4-c]pyridin-3-yl}-3,4-dihydro-2H-quinolin-1-yl)prop-2-en-1-one] | 550 nM
7 | C=CC(=O)N1CCCc2ccc(-c3n[nH]c4ccncc34)cc21 [Compound 11, 1-(7-{1H-pyrazolo[4,3-c]pyridin-3-yl}-3,4-dihydro-2H-quinolin-1-yl)prop-2-en-1-one] | 1400 nM
8 | C=CC(=O)N1CCCc2ccc(-c3n[nH]c4cc(C)ccc34)cc21 [Compound 12, 1-[7-(6-methyl-1H-indazol-3-yl)-3,4-dihydro-2H-quinolin-1-yl]prop-2-en-1-one] | 160 nM
9 | C=CC(=O)N1CCOc2ccc(-c3n[nH]c4ccccc34)cc21 [Compound 13, 1-[6-(1H-indazol-3-yl)-2,3-dihydro-1,4-benzoxazin-4-yl]prop-2-en-1-one] | 140 nM
10 | C=CC(=O)N1c2cc(-c3n[nH]c4ncccc34)ccc2CC1C (stereo not drawn) [Compound 15, 1-[2-methyl-6-{1H-pyrazolo [3,4-b]pyridin-3-yl}-2,3-dihydroindol-1-yl]prop-2-en-1-one] | 440 nM
11 | C=CC(=O)N1c2cc(-c3n[nH]c4ncccc34)ccc2C[C@@H]1C [Compound 15-B] | 160 nM
12 | C=CC(=O)N1CCc2ccc(-c3n[nH]c4ncccc34)c(F)c21 [Compound 17, 1-(7-fluoro-6-{1H-pyrazolo[3,4-b]pyridin-3-yl}-2,3-dihydroindol-1-yl)prop-2-en-1-one] | 88 nM

Now those with a lower IC50, led by results:

Row | IC50 | Structure (SMILES)
13 | 70 nM | N#C/C=C/C(=O)N1CCc2ccc(-c3n[nH]c4ccccc34)cc21 [Compound 5, (2E)-4-[6-(1H-indazol-3-yl)-2,3-dihydroindol-1-yl]-4-oxobut-2-enenitrile]
14 | 30 nM | C=CC(=O)N1CCc2ccc(-c3n[nH]c4ccncc34)cc21 [Compound 3, 1-(6-{1H-pyrazolo[4,3-c]pyridin-3-yl}-2,3-dihydroindol-1-yl)prop-2-en-1-one]
15 | 23 nM | C=CC(=O)N1CCc2ccc(-c3n[nH]c4cc(C)ccc34)cc21 [Compound 4, 1-[6-(6-methyl-1H-indazol-3-yl)-2,3-dihydroindol-1-yl]prop-2-en-1-one]
16 | 19 nM | C=CC(=O)N1CCc2ccc(-c3n[nH]c4ccccc34)cc21 [Compound 14, 1-[6-(1H-indazol-3-yl)-2,3-dihydroindol-1-yl]prop-2-en-1-one]
17 | 7.7 nM | C=CS(=O)(=O)N1CCc2ccc(-c3n[nH]c4ncccc34)cc21 [Compound 16, 1-(ethenesulfonyl)-6-{1H-pyrazolo[3,4-b]pyridin-3-yl}-2,3-dihydroindole]
18 | 6 nM | C=CC(=O)N1CCc2ccc(-c3n[nH]c4cc(C#N)ccc34)cc21 [Compound 18, 3-[1-(prop-2-enoyl)-2,3-dihydroindol-6-yl]-1H-indazole-6-carbonitrile]
19 | 4.8 nM | C=CC(=O)N1CCc2ccc(-c3n[nH]c4cnccc34)cc21 [Compound 1, 1-(6-{1H-pyrazolo[3,4-c]pyridin-3-yl}-2,3-dihydroindol-1-yl)prop-2-en-1-one]

target: T1, MKK7; test: In vitro competitive binding assay (kinase-tagged phage / qPCR); settings: 11-point 3-fold dilution series; Hill slope set to -1
Experimental: Kinase-tagged T7 phage strains were prepared in an E. coli host derived from the BL21 strain. E. coli were grown to log-phase and infected with T7 phage and incubated with shaking at 32° C. until lysis. The lysates were centrifuged and filtered to remove cell debris. The remaining kinases were produced in HEK-293 cells and subsequently tagged with DNA for qPCR detection. Streptavidin-coated magnetic beads were treated with biotinylated small molecule ligands for 30 minutes at room temperature to generate affinity resins for kinase assays. The liganded beads were blocked with excess biotin and washed with blocking buffer (SeaBlock (Pierce), 1% BSA, 0.05% Tween 20, 1 mM DTT) to remove unbound ligand and to reduce non-specific binding. […] Kds were determined using an 11-point 3-fold compound dilution series with three DMSO control points. […] The kinase concentration in the eluates was measured by qPCR.
An 11-point 3-fold serial dilution of each test compound was prepared in 100% DMSO at 100× final test concentration and subsequently diluted to 1× in the assay (final DMSO concentration=1%). Most Kds were determined using a compound top concentration=30,000 nM. […]
Binding constants (Kds) were calculated with a standard dose-response curve using the Hill equation: […]

Row | Kd | Structure (SMILES)
20 | 7.8 nM | C=CC(=O)N1CCc2ccc(-c3n[nH]c4cc(C)ccc34)cc21 [Compound 4, 1-[6-(6-methyl-1H-indazol-3-yl)-2,3-dihydroindol-1-yl]prop-2-en-1-one]
21 | 71 nM | C=CC(=O)N1CCCc2ccc(-c3n[nH]c4cc(C)ccc34)cc21 [Compound 12, 1-[7-(6-methyl-1H-indazol-3-yl)-3,4-dihydro-2H-quinolin-1-yl]prop-2-en-1-one]
